Data from patent EP0017102A1, “Composition containing a phenyl benzoic acid compound and acetaminophen combination for the treatment of pain and inflammation and process for preparing the same” (Merck & Co., Inc., priority 1979, dated 1980).

Columns and labels:
[1] = test system: adjuvant arthritis induced in rats; test: adjuvant arthritis analgesic bioassay (tail pinch / foot bend squeak response); assay type: in vivo, Sprague-Dawley rats
Excerpt: Since analgesic tests using intact animals are not sensitive enough to detect the analgesic activity of nonsteroidal anti-inflammatory compounds, the analgesic bioassay employed utilized inflammatory sensitization procedures, specifically adjuvant arthritis. Adjuvant arthritis induced in rats, the animals used in the bioassay, resembles rheumatoid arthritis in man with respect to the manifestation of inflammation and hyperalgesia. When the affected joints of rats with adjuvant arthritis are subjected to a gentle manipulation, preferably by extending the joint, the rats respond by squeaking, which is a definite and reproducible sign of algesia. The ability of the tested compounds to suppress this squeaking response was an accurate measure of the analgesic activity of the tested compounds.
In accordance with the adjuvant arthritis bioassay used to evaluate the analgesic activity of the combinations of compounds of the present invention, young adult Sprague-Dawley rats of either sex are rendered hyperalgesic by injection of dessicated Mycobacterium- butyricum suspended in light mineral oil (Freund's adjuvant). The mycobacteria are ground in a mortar, suspended in the oil, and sterilized in an autoclave. Each animal receives 0.5 mg of the bacteria in 0.1 ml of oil, injected subcutaneously through a 21-gauge needle into the distal third of the tail.
The animals can subsequently be used in two ways for testing the analgesic action of drugs. The day after the injection of adjuvant, the tail is found to be sensitive to touch. Approximately 16 hours after the injection, the experimenter tests the animals for the presence of hyperalgesia. This is done by holding the animal in one hand. With the thumb and forefinger of the other hand, the observer applies gentle pressure to the tail about 2.5 cm proximal to the point where the needle has been inserted. This gentle pressure is repeated at 5-sec intervals. If the rat endures five such gentle presses without emitting more than one "squeak", analgesia is considered to be present and a score of + is assigned. Two or more squeaks earns a rating of 0, or no analgesia. Before being assigned to an experiment, animals are screened and only those with the 0 rating are used.
The hyperalgesic animals are assigned randomly to drug treatments and one of the treatments is always the vehicle without the drug (placebo group). […] […] This entire procedure may be referred to as "tail pinch" .technique. Alternatively, an apparatus for applying pressure to the tail may be employed and the "squeak threshold" determined before and after drug.
The adjuvant-injected animals, if left undisturbed, develop severe arthritis which becomes especially manifest in about two weeks. […] This "foot bend" technique yields drug responses essentially identical with those obtained by the "tail pinch" procedure.
For a further description of this bioassay and its significance, reference is made to Kuzuma and Kawai, "Evaluation of Analgesic Agents in Rats with Adjuvant Arthritis", Chem. Pharm. Bull., 23 (6) 1184-1191 (1975).

[2] = test system: female albino mice (Carworth CF-1); test: in vivo; assay type: in vivo; settings: Group I: Diflunisal 400 mg./kg. (100 %LD50) alone; oral; 20 tested; 14 days
Description: Measurements of the relative safety of the components and of the combination were carried out using acute oral toxicity studies in female mice. Randomly selected female albino mice (Carworth CF-1) weighing from 18 to 24 grams, and 6 to 7 weeks old, were used. The LD50 value for each drug was estimated from acute oral dose-response curves previously established. The following dose regimen was utilized:
The preparations were administered by gastric intubation using a metal catheter attached to a springe. The various doses were administered randomly with 20 mice per group. Food was withheld one to two hours before and three hours following drug treatment. Water was available at all times. […] Body weights were taken pretest and on days 7 and 14.

O=C(O)c1cc(-c2ccc(F)cc2F)ccc1O [Diflunisal, 2-hydroxy-5-(2',4'-difluorophenyl)benzoic acid]
1: Number of Rats with Analgesia ([1]; 1 h after administration, dose 20 mg./kg., 8 rats per dose) | Number of Rats with Analgesia ([1]; 2 h after administration, dose 4 mg./kg., 10 rats per dose) | Number of Rats with Analgesia ([1]; 2 h after administration, dose 5 mg./kg., 8 rats per dose) | Number of Rats with Analgesia ([1]; 2 h after administration, dose 8 mg./kg., 8 rats per dose) | Number of Rats with Analgesia ([1]; 2 h after administration, dose 10 mg./kg., 8 rats per dose) | Number of Rats with Analgesia ([1]; 3 h after administration, dose 4 mg./kg., 8 rats per dose) | Number of Rats with Analgesia ([1]; 4 h after administration, dose 5 mg./kg., 8 rats per dose) | Number of Rats with Analgesia ([1]; 4 h after administration, dose 8 mg./kg., 8 rats per dose) | Number of Rats with Analgesia ([1]; 5 h after administration, dose 4 mg./kg., 10 rats per dose) | Number of Rats with Analgesia ([1]; 6 h after administration, dose 8 mg./kg., 10 rats per dose) | Number of Rats with Analgesia ([1]; 6 h after administration, dose 16 mg./kg., 8 rats per dose) | Total Positives ([1]; sum over 1/2, 1 and 2 h, dose 5 mg./kg., 8 rats per dose) | Total Positives ([1]; sum over 1/2, 1 and 2 h, dose 10 mg./kg., 8 rats per dose) | Total Positives ([1]; sum over 1 and 2 h, dose 4 mg./kg., 10 rats per dose)
20%: Percent of Rats with Analgesia Diflunisal Alone ([1]; 2 Hrs. after drug, Diflunisal 2 mg./kg., 10 rats per dose)
3: Number of Rats with Analgesia ([1]; 3 h after administration, dose 8 mg./kg., 8 rats per dose) | Number of Rats with Analgesia ([1]; 4 h after administration, dose 8 mg./kg., 10 rats per dose) | Number of Rats with Analgesia ([1]; 4 h after administration, dose 16 mg./kg., 8 rats per dose)
25%: Percent of Rats with Analgesia Diflunisal Alone ([1]; 3 Hrs. after drug, Diflunisal 5 mg./kg., 8 rats per dose)
0%: Percent of Rats with Analgesia Diflunisal Alone ([1]; 1 Hrs. after drug, Diflunisal 4 mg./kg., 8 rats per dose) | Percent of Rats with Analgesia Diflunisal Alone ([1]; 1 Hrs. after drug, Diflunisal 4 mg./kg., 10 rats per dose) | Percent of Rats with Analgesia Diflunisal Alone ([1]; 1 Hrs. after drug, Diflunisal 8 mg./kg., 8 rats per dose) | Percent of Rats with Analgesia Diflunisal Alone ([1]; 1 Hrs. after drug, Diflunisal 10 mg./kg., 8 rats per dose) | Percent of Rats with Analgesia Diflunisal Alone ([1]; 1 Hrs. after drug, Diflunisal 16 mg./kg., 8 rats per dose) | Percent of Rats with Analgesia Diflunisal Alone ([1]; 3 Hrs. after drug, Diflunisal 4 mg./kg., 10 rats per dose) | Percent of Rats with Analgesia Diflunisal Alone ([1]; 4 Hrs. after drug, Diflunisal 2 mg./kg., 10 rats per dose) | Percent of Rats with Analgesia Diflunisal Alone ([1]; 4 Hrs. after drug, Diflunisal 4 mg./kg., 10 rats per dose) | Percent of Rats with Analgesia Diflunisal Alone ([1]; 5 Hrs. after drug, Diflunisal 5 mg./kg., 8 rats per dose) | Percent of Rats with Analgesia Diflunisal Alone ([1]; 5 Hrs. after drug, Diflunisal 8 mg./kg., 8 rats per dose) | Percent of Rats with Analgesia Diflunisal Alone ([1]; 6 Hrs. after drug, Diflunisal 8 mg./kg., 8 rats per dose) | Percent of Rats with Analgesia Diflunisal Alone ([1]; 6 Hrs. after drug, Diflunisal 10 mg./kg., 8 rats per dose)
14: No. Dead [2]
50%: Percent of Rats with Analgesia Diflunisal Alone ([1]; 3 Hrs. after drug, Diflunisal 8 mg./kg., 10 rats per dose)
7: Number of Rats with Analgesia ([1]; 3 h after administration, dose 20 mg./kg., 8 rats per dose) | Number of Rats with Analgesia ([1]; 4 h after administration, dose 20 mg./kg., 8 rats per dose)
0: Number of Rats with Analgesia ([1]; 1/2 h after administration, dose 5 mg./kg., 8 rats per dose) | Number of Rats with Analgesia ([1]; 1/2 h after administration, dose 10 mg./kg., 8 rats per dose) | Number of Rats with Analgesia ([1]; 1 h after administration, dose 4 mg./kg., 8 rats per dose) | Number of Rats with Analgesia ([1]; 1 h after administration, dose 4 mg./kg., 10 rats per dose) | Number of Rats with Analgesia ([1]; 1 h after administration, dose 5 mg./kg., 8 rats per dose) | Number of Rats with Analgesia ([1]; 1 h after administration, dose 8 mg./kg., 8 rats per dose) | Number of Rats with Analgesia ([1]; 1 h after administration, dose 10 mg./kg., 8 rats per dose) | Number of Rats with Analgesia ([1]; 1 h after administration, dose 16 mg./kg., 8 rats per dose) | Number of Rats with Analgesia ([1]; 3 h after administration, dose 4 mg./kg., 10 rats per dose) | Number of Rats with Analgesia ([1]; 4 h after administration, dose 2 mg./kg., 10 rats per dose) | Number of Rats with Analgesia ([1]; 4 h after administration, dose 4 mg./kg., 8 rats per dose) | Number of Rats with Analgesia ([1]; 4 h after administration, dose 4 mg./kg., 10 rats per dose) | Number of Rats with Analgesia ([1]; 5 h after administration, dose 2 mg./kg., 10 rats per dose) | Number of Rats with Analgesia ([1]; 5 h after administration, dose 4 mg./kg., 8 rats per dose) | Number of Rats with Analgesia ([1]; 5 h after administration, dose 5 mg./kg., 8 rats per dose) | Number of Rats with Analgesia ([1]; 5 h after administration, dose 8 mg./kg., 8 rats per dose) | Number of Rats with Analgesia ([1]; 6 h after administration, dose 2 mg./kg., 10 rats per dose) | Number of Rats with Analgesia ([1]; 6 h after administration, dose 4 mg./kg., 8 rats per dose) | Number of Rats with Analgesia ([1]; 6 h after administration, dose 4 mg./kg., 10 rats per dose) | Number of Rats with Analgesia ([1]; 6 h after administration, dose 5 mg./kg., 8 rats per dose) | Number of Rats with Analgesia ([1]; 6 h after administration, dose 8 mg./kg., 8 rats per dose) | Number of Rats with Analgesia ([1]; 6 h after administration, dose 10 mg./kg., 8 rats per dose)
4: Number of Rats with Analgesia ([1]; 1 h after administration, dose 8 mg./kg., 10 rats per dose) | Number of Rats with Analgesia ([1]; 2 h after administration, dose 8 mg./kg., 10 rats per dose) | Number of Rats with Analgesia ([1]; 2 h after administration, dose 16 mg./kg., 8 rats per dose) | Number of Rats with Analgesia ([1]; 2 h after administration, dose 20 mg./kg., 8 rats per dose) | Number of Rats with Analgesia ([1]; 3 h after administration, dose 10 mg./kg., 8 rats per dose) | Number of Rats with Analgesia ([1]; 4 h after administration, dose 10 mg./kg., 8 rats per dose) | Number of Rats with Analgesia ([1]; 6 h after administration, dose 20 mg./kg., 8 rats per dose)
6: Number of Rats with Analgesia ([1]; 3 h after administration, dose 16 mg./kg., 8 rats per dose)
10%: Percent of Rats with Analgesia Diflunisal Alone ([1]; 4 Hrs. after drug, Diflunisal 5 mg./kg., 8 rats per dose)
5: Number of Rats with Analgesia ([1]; 3 h after administration, dose 8 mg./kg., 10 rats per dose) | Number of Rats with Analgesia ([1]; 5 h after administration, dose 20 mg./kg., 8 rats per dose)
30%: Percent of Rats with Analgesia Diflunisal Alone ([1]; 4 Hrs. after drug, Diflunisal 8 mg./kg., 10 rats per dose)
2: Number of Rats with Analgesia ([1]; 1 h after administration, dose 2 mg./kg., 10 rats per dose) | Number of Rats with Analgesia ([1]; 2 h after administration, dose 2 mg./kg., 10 rats per dose) | Number of Rats with Analgesia ([1]; 2 h after administration, dose 4 mg./kg., 8 rats per dose) | Number of Rats with Analgesia ([1]; 3 h after administration, dose 2 mg./kg., 10 rats per dose) | Number of Rats with Analgesia ([1]; 3 h after administration, dose 5 mg./kg., 8 rats per dose) | Number of Rats with Analgesia ([1]; 5 h after administration, dose 8 mg./kg., 10 rats per dose) | Number of Rats with Analgesia ([1]; 5 h after administration, dose 10 mg./kg., 8 rats per dose) | Number of Rats with Analgesia ([1]; 5 h after administration, dose 16 mg./kg., 8 rats per dose)
